In patent US20190134069A1, “USE OF THYROID BETA-AGONISTS” (priority 2016, published 2019):

Experiments:
[1] = system: X-ALD fibroblast cell lines; assay: Cell health (proliferation, morphology) of X-ALD fibroblasts incubated with compounds; type: cell-based, Human; details: for cell health judged by proliferation and morphology: after 72 hours; for cell survival (toxicity): 100 μM, both X-ALD cell lines, within 24 hours
Procedure: (§1) Human skin fibroblasts were obtained from X-ALD patients through the Neurology Outpatient Clinic of the Academic Medical Center. Written informed consent was received from each patient. X-ALD diagnosis was confirmed by VLCFA and ABCD1 mutation analysis. Control fibroblasts were obtained from male anonymous volunteers with written informed consent. Fibroblasts were cultured in Dulbecco's modified Eagle's medium (DMEM) with L-glutamine and 4.5 g/L glucose, supplemented with 10% fetal calf serum, 2.5 mM HEPES, 100 U/ml penicillin and 100 U/ml streptomycin. Cells were cultured at 37° C. in a humidified 5% CO2 atmosphere. All fibroblast cell lines used were tested routinely for mycoplasma. All tests were negative.
10 mM stock solutions in DMSO were prepared by weighing the amount of compound (1 and 3 and their respective active metabolites, 2 and 4) as indicated in Table 2. Stock solutions were stored at room temperature in the dark. For each incubation, the amount of tissue culture medium needed was calculated and a stock solution of tissue culture medium with the final concentration of the to-be-tested compound was prepared. Tissue culture medium was removed from the cells, cells were washed once with PBS and the tissue culture medium with the compounds was added. If an experiment lasted longer than three days, the tissue culture medium and compounds were refreshed (using a fresh preparation) after three days until the end of the experiment.
Two different X-ALD fibroblast cell lines were incubated in duplicate with four compounds at three dosages as highlighted in Table 3.
4 X-ALD cell lines were incubated with 10 μM of 4 compounds 1, 2, 3, and 4. The effect of treatment on ABCD2 expression was analyzed at day 3 and day 10. For the 10 day incubation, tissue culture medium and compounds were refreshed at day 3 and day 6.

[2] = system: X-ALD cell lines; assay: D3-C26:0 de novo synthesis from D3-C22:0 in intact cells; type: cell-based, Human; details: 10 day treatment, 5 X-ALD cell lines
Procedure: as §1
The effect of treatment on D3-C26:0 synthesis in intact cells. The effect of certain compounds of the invention on the synthesis of D3-C26:0 from D3-C22:0 was measured in cultured skin fibroblasts from controls and X-ALD patients. Cells were seeded at approximately 40% confluency in T75 flasks in DMEM. The next day, medium was replaced with medium containing 30 μM D3-C22:0 and the assayed compounds at their final concentration. […] Each 72 h, the tissue culture medium and compounds was refreshed. At the end of the experiment cells were harvested and VLCFA analyzed as described (Valianpour et al., Molecular Genetics and Metabolism, 79: 189-196 (2003)).
VLCFA were analyzed by electrospray ionization mass spectrometry (ESI-MS) as described (Valianpour et al., Molecular Genetics and Metabolism, 79: 189-196 (2003)).
5 different X-ALD cell lines were incubated for 6 days with compounds 1, 2, 3, and 4 at 10 μM, 5 mM 4PBA (sodium 4-phenylbutyrate), or 0.1 μM sobetirome. On Day 6, 30 μM D3C22:0 was added to assess the effect of treatment on beta-oxidation and de novo D3C26:0 synthesis. 6 untreated control cells as well as 5 different untreated X-ALD cells were included to allow assessment of the treatment effect. The total set consisted of 41 experiments

[3] = system: ABCD1−/− mice; assay: Whole blood VLCFA-LPC levels in in vivo model of X-ALD; details: for Mean blood C26:0-LPC level: once daily IP
Procedure: (§2) Male ABCD1−/− mice were developed using the Taconic 129SvEv background strain. Animals were housed 3-4/cage under a 12-hour lighting cycle (7 AM-7 PM light) and controlled temperature (22° C.) in the rodent facility. They were fed standard mouse chow and had access to drinking water ad libitum. Mice were between 2 and 3 months of age at the beginning of each study.
(§3) Mice were injected once daily intraperitoneal with either drug or vehicle. For blood collection, ˜50 μL of blood was obtained by facial vein puncture using a sterile lancet. Blood was collected in a 1.5 ml microcentrifuge tube containing dried dipotassium EDTA and mixed by gentle inversion at least ten times before storing at −20° C. Blood was obtained in this manner following two, four, and six weeks of treatment. Following blood collection at six weeks, animals were sacrificed by cervical dislocation. Additional blood for preparation of plasma was obtained via cardiac puncture, and blood placed in Microtainer tubes. Brain, spinal cord, adrenal glands, testis, and liver were excised and snap frozen in liquid nitrogen for future analyses.

[4] = system: ABCD1−/− mice; assay: Plasma VLCFA-LPC levels in in vivo model of X-ALD
Procedure: as §2, §3
During the second cohort study, blood was obtained as described in the Methods section. At the six week time point sufficient blood was collected to permit plasma VLCFA analyses at weeks two, four and six. Plasma is considered by many to be a more reliable measurement of VLCFA levels, because of reduced analytical interference from other analytes, as well as reduced variability of the measurements.

[5] = system: X-ALD cell lines; assay: D3-C22:0 (VLCFA) beta-oxidation in intact cells; type: cell-based, Human; details: 10 day treatment, 5 X-ALD cell lines
Procedure: as §1
Peroxisomal beta-oxidation activity was measured essentially as described by incubating cells with 30 μM deuterium-labeled C22:0 (D3-C22:0) (Kemp et al., Clinical Chemistry 50: 1824-1826 (2004)). Cells were seeded at approximately 40% confluency in T75 flasks in DMEM. […] At the end of the experiment cells were harvested and VLCFA analyzed as described (Valianpour et al., Molecular Genetics and Metabolism, 79: 189-196 (2003)).
VLCFA were analyzed by electrospray ionization mass spectrometry (ESI-MS) as described (Valianpour et al., Molecular Genetics and Metabolism, 79: 189-196 (2003)). […]

[6] = second cohort, week 6, p<0.0001

SMILES: Cc1cc(OCP(=O)(O)O)cc(C)c1Cc1ccc(O)c(Cc2ccccc2)c1 [Compound 4]
- cell health judged by proliferation and morphology ([1]; 0.1, 1 or 10 μM): looked healthy

SMILES: Cc1cc(OC[P@@]2(=O)OCC[C@@H](c3cccc(Cl)c3)O2)cc(C)c1Cc1ccc(O)c(C(C)C)c1 [Compound 1]
- reduction in D3C26:0 de novo synthesis ([2]; 10 μM): ~40%
- cell survival (toxicity) [1]: dead
- cell health judged by proliferation and morphology ([1]; 0.1 or 10 μM): looked healthy

SMILES: Cc1cc(OCP(=O)(O)O)cc(C)c1Cc1ccc(O)c(C(C)C)c1 [Compound 2]
- cell health judged by proliferation and morphology ([1]; 0.1, 1 or 10 μM): looked healthy

SMILES: Cc1cc(OCP(=O)(OCOC(=O)C(C)(C)C)OCOC(=O)C(C)(C)C)cc(C)c1Cc1ccc(O)c(Cc2ccccc2)c1 [Compound 3]
- reduction in whole blood C26:0-LPC levels relative to vehicle controls ([3]; initial cohort, after six week treatment, p<0.0001): 40%
- Mean blood C26:0-LPC level ([3]; initial cohort, week 2): 0.262 µM
- Mean blood C26:0-LPC level ([3]; initial cohort, week 4): 0.276 µM
- Mean blood C26:0-LPC level ([3]; initial cohort, week 6): 0.356 µM
- Difference in Mean Change from Baseline, blood C26:0-LPC ([3]; initial cohort, week 2): -0.052 µM
- % Difference versus Vehicle, blood C26:0-LPC ([3]; initial cohort, week 2, p NS): 0%
- Difference in Mean Change from Baseline, blood C26:0-LPC ([3]; initial cohort, week 4): -0.081 µM
- % Difference versus Vehicle, blood C26:0-LPC ([3]; initial cohort, week 4, p NS): −11%
- Difference in Mean Change from Baseline, blood C26:0-LPC ([3]; initial cohort, week 6): -0.188 µM
- % Difference versus Vehicle, blood C26:0-LPC ([3]; initial cohort, week 6, p<0.0001): −40%
- reduction in whole blood C26:0-LPC levels (change from baseline) ([3]; second cohort, daily IP, six weeks of treatment, FIG. 8): approximately 0.11 μM
- Least Squares Mean Change from Baseline Whole Blood C26:0-LPC ([3]; second cohort, week 2, p NS versus vehicle): -0.021 µM
- Least Squares Mean Change from Baseline Whole Blood C26:0-LPC ([3]; second cohort, week 4, p<0.01 versus vehicle): -0.096 µM
- Least Squares Mean Change from Baseline Whole Blood C26:0-LPC ([3]; second cohort, week 6, p<0.005 versus vehicle): -0.12 µM
- reduction in C26:0-LPC relative to vehicle-treated animals ([3]; second cohort, whole blood, six weeks, p<0.005): 52%
- C20:0-, C22:0-, and C24:0-LPC levels ([4]; after six weeks of treatment): significant reductions
- Mean plasma C20:0-LPC level ([4]; second cohort, week 6): 0.76 µM
- Mean plasma C22:0-LPC level ([4]; second cohort, week 6): 0.20 µM
- Mean plasma C24:0-LPC level ([4]; second cohort, week 6): 1.14 µM
- Mean plasma C26:0-LPC level ([4]; second cohort, week 6): 0.20 µM
- % Difference vs. Vehicle, plasma C20:0-LPC [4, 6]: −54%
- % Difference vs. Vehicle, plasma C22:0-LPC [4, 6]: −43%
- % Difference vs. Vehicle, plasma C26:0-LPC [4, 6]: −29%
- % Difference vs. Vehicle, plasma C24:0-LPC ([4]; second cohort, week 6, p<0.005): −21%
- cell survival (toxicity) [1]: dead
- cell health judged by proliferation and morphology ([1]; 0.1 or 10 μM): looked healthy

SMILES: O=C([O-])CCCc1ccccc1.[Na+] [Compound 4PBA, sodium 4-phenylbutyrate]
- VLCFA (D3C26:0) de novo synthesis ([2]; 5 mM): near normal levels
- VLCFA beta-oxidation restored ([5]; 5 mM): ~50 % of controls

SMILES: Cc1cc(OCC(=O)O)cc(C)c1Cc1ccc(O)c(C(C)C)c1 [sobetirome]
- effect on VLCFA de novo synthesis ([2]; 0.1 μM): did not show any beneficial effect
- effect on VLCFA beta-oxidation ([5]; 0.1 μM): did not show any beneficial effect
